The source of these data is patent publication US20250163104A1, “MACROCYCLIC IMMUNOMODULATORS” (priority 2021, published 2025).

Where a SMILES comes first, the peptide text is derived from it. Bridges are numbered along the chain shown (N, C = ends). [ ]: non-standard residue; d: D form. The star is where a group is joined. Phe(4-COOH) = N[C@@H](Cc1ccc(C(=O)O)cc1)C(=O)O; Bip = N[C@@H](Cc1ccc(-c2ccccc2)cc1)C(=O)O; Phe(3-Me) = Cc1cccc(C[C@H](N)C(=O)O)c1; 2Nal = N[C@@H](Cc1ccc2ccccc2c1)C(=O)O; 4Pal = N[C@@H](Cc1ccncc1)C(=O)O; Cha = N[C@@H](CC1CCCCC1)C(=O)O; Hpra = C#CCC[C@H](N)C(=O)O; Carboxymethyl = O=C(O)C*; Nle = CCCC[C@H](N)C(=O)O; Orn = NCCC[C@H](N)C(=O)O; Dab = NCC[C@H](N)C(=O)O; Dap = NC[C@H](N)C(=O)O; Propargyl = C#CC*

For this assay, the target named is T1, human PD-1 / PD-L1-Ig binding on Jurkat cell line over-expressing human PD-1 (Jurkat-PD-1) (Homo sapiens, UniProt Q15116).
T1 construct: expressed in transfected cells; host or cells: Jurkat
Nature of the assay: Jurkat-PD-1 Cell Binding High-Content Screening Assay (CBA). In kind it is cell-based. To be noted: Jurkat-PD-1 cells, PE-labeled PD-L1-Ig 20 nM final; read-out: Jurkat HPD1_PDL1 IC50. The procedure, abridged:
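Jurkat cells over-expressing human PD-1, in DMEM/10% FCS, pre-incubated with compound 2 h at 37° C. PE-labeled human PD-L1-Ig (20 nM final) added for 1 h; cells fixed in paraformaldehyde with Hoechst 33342 nuclear stain, washed, and bound fluorescence quantified by high-content imaging.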

T1 sequence (Q15116 25-288): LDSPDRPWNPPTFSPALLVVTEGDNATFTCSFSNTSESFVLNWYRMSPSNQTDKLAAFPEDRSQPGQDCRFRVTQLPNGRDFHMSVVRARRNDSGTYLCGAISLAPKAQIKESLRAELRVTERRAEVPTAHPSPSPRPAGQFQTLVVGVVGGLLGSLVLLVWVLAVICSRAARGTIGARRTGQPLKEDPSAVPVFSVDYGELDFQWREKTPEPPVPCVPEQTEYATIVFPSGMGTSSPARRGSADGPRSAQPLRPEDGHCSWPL

A word on the IC50: it is the concentration needed to halve the response being measured. For `C#CCOc1ccc(C[C@@H]2NC(=O)[C@H](Cc3cccc(C)c3)NC(=O)[C@H](CC(=O)O)NC(=O)[C@H](Cc3ccc(OCC(=O)O)cc3)NC(=O)[C@H](CCCC)NC(=O)CSC[C@@H](C(=O)N[C@@H](CCN)C(N)=O)NC(=O)[C@H](CCC(=O)O)NC(=O)[C@H](C(C)C)NC(=O)[C@H](CC3CCCCC3)NC(=O)[C@H](CCN)NC(=O)[C@@H](CC(C)C)NC(=O)[C@H](CCCN)NC(=O)[C@H](Cc3ccc(OCC(=O)O)cc3)NC(=O)[C@H](Cc3ccc(-c4ccccc4)cc3)NC2=O)cc1` [Compound 1833] ({CH2CO}-[Nle]Y(Carboxymethyl)D[Phe(3-Me)]Y(Propargyl)[Bip]Y(Carboxymethyl)[Orn][dL][Dab][Cha]VEC[Dab]-NH2; thioether N-14), the IC50 came out at 1.5 nM. `CC(C)C[C@H]1NC(=O)[C@H](CCCN)NC(=O)[C@H](CCC(=O)O)NC(=O)[C@H](Cc2ccc(-c3ccccc3)cc2)NC(=O)[C@H](C(C)C)NC(=O)[C@H](Cc2ccc3ccccc3c2)NC(=O)[C@H](CC(=O)O)NC(=O)[C@H](Cc2ccc(OCC(=O)O)cc2)NC(=O)[C@H](CN)NC(=O)CSC[C@@H](C(=O)N[C@@H](C)C(N)=O)NC(=O)[C@H]([C@@H](C)O)NC(=O)[C@H](C(C)C)NC(=O)[C@H](CC2CCCCC2)NC(=O)[C@H](CCN)NC1=O` [Compound 2142] ({CH2CO}-[Dap]Y(Carboxymethyl)D[2Nal]V[Bip]E[Orn][dL][Dab][Cha]VTCA-NH2; thioether N-14): the IC50 was 543 nM. The same measure for `Cc1cccc(C[C@@H]2NC(=O)[C@H](CC(=O)O)NC(=O)[C@H](Cc3ccc(C(=O)O)cc3)NC(=O)[C@H](Cc3ccncc3)NC(=O)CSC[C@@H](C(=O)N[C@@H](CO)C(N)=O)NC(=O)[C@H](CO)NC(=O)[C@H](C(C)C)NC(=O)[C@H](CC3CCCCC3)NC(=O)[C@H](CCN)NC(=O)[C@@H](CC(C)C)NC(=O)[C@H](CCCN)NC(=O)[C@H](Cc3ccc(OCC(=O)O)cc3)NC(=O)[C@H](Cc3ccc(-c4ccccc4)cc3)NC(=O)[C@H](Cc3ccc(OCC(=O)O)cc3)NC2=O)c1` [Compound 2295] ({CH2CO}-[4Pal][Phe(4-COOH)]D[Phe(3-Me)]Y(Carboxymethyl)[Bip]Y(Carboxymethyl)[Orn][dL][Dab][Cha]VSCS-NH2; thioether N-14): 11.7 nM; for `CC[C@H](C)[C@@H]1NC(=O)[C@H](Cc2ccc(-c3ccccc3)cc2)NC(=O)[C@H](C(C)C)NC(=O)[C@H](Cc2c[nH]c3ccccc23)NC(=O)[C@H](CC(=O)O)NC(=O)[C@H](Cc2ccc(OCC(=O)O)cc2)NC(=O)[C@H](CN)NC(=O)CSC[C@@H](C(=O)N[C@@H](C)C(N)=O)NC(=O)[C@H]([C@@H](C)O)NC(=O)[C@H](C(C)C)NC(=O)[C@H](CC(C)C)NC(=O)[C@H](CCN)NC(=O)[C@@H](CC(C)C)NC(=O)[C@H](CCCN)NC1=O` [Compound 1054] ({CH2CO}-[Dap]Y(Carboxymethyl)DWV[Bip]I[Orn][dL][Dab]LVTCA-NH2; thioether N-14): 9 nM; for `C#CCC[C@@H]1NC(=O)[C@H](CC2CCCCC2)NC(=O)[C@H](CCN)NC(=O)[C@@H](CC(C)C)NC(=O)[C@H](CCCN)NC(=O)[C@H](C(C)C)NC(=O)[C@H](Cc2ccc(-c3ccccc3)cc2)NC(=O)[C@H](C(C)C)NC(=O)[C@H](Cc2cccc(C)c2)NC(=O)[C@H](CC(=O)O)NC(=O)[C@H](Cc2ccc(C(=O)O)cc2)NC(=O)[C@H](CN)NC(=O)CSC[C@@H](C(=O)N[C@@H](CCN)C(N)=O)NC(=O)[C@H]([C@@H](C)O)NC1=O` [Compound 2027] ({CH2CO}-[Dap][Phe(4-COOH)]D[Phe(3-Me)]V[Bip]V[Orn][dL][Dab][Cha][Hpra]TC[Dab]-NH2; thioether N-14): 10.3 nM.
